Data reported in ChEMBL document CHEMBL1201862, “PubChem BioAssay data set” (2004).
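Method: 48-hour compound exposure of cells in 96-well plates, five concentrations, linear interpolation of endpoints. GI50 marks 50% less growth.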 Calls of active or inactive are those of the source. No stated cut-off is given here; in the data, active = GI50 up to about 1.1 µM and inactive = higher.

Key:
Assay in all cases: growth of human tumour cells (NCI), 48 h
PC-3 = system: PC-3
RXF 393 = system: RXF 393
OVCAR-4 = system: OVCAR-4
MOLT-4 = system: MOLT-4
A549 = system: A549
SF-295 = system: SF-295
MDA-N = system: MDA-N
HCC 2998 = system: HCC 2998
NCI-H23 = system: NCI-H23
COLO 205 = system: COLO 205
CAKI-1 = system: CAKI-1
HCT-15 = system: HCT-15
HT-29 = system: HT-29
TK-10 = system: TK-10
SK-OV-3 = system: SK-OV-3
UACC-62 = system: UACC-62
SW-620 = system: SW-620
UO-31 = system: UO-31
MDA-MB-231 = system: MDA-MB-231
NCI-H522 = system: NCI-H522
SF-539 = system: SF-539
MDA-MB-435 = system: MDA-MB-435
SR = system: SR
HCT-116 = system: HCT-116
EKVX = system: EKVX
SN12C = system: SN12C
SK-MEL-2 = system: SK-MEL-2
SNB-19 = system: SNB-19
OVCAR-5 = system: OVCAR-5
BT-549 = system: BT-549
SK-MEL-28 = system: SK-MEL-28
Hs-578T = system: Hs-578T
T47D = system: T47D
KM12 = system: KM12
UACC-257 = system: UACC-257
HOP-92 = system: HOP-92
A498 = system: A498
786-0 = system: 786-0
IGROV-1 = system: IGROV-1
NCI/ADR-RES = system: NCI/ADR-RES
MCF7 = system: MCF7
Malme-3M = system: Malme-3M
NCI-H460 = system: NCI-H460
DU-145 = system: DU-145
HOP-62 = system: HOP-62
K562 = system: K562
CCRF-CEM = system: CCRF-CEM
OVCAR-3 = system: OVCAR-3
SF-268 = system: SF-268
ACHN = system: ACHN
NCI-H226 = system: NCI-H226
U-251 = system: U-251
SNB-75 = system: SNB-75
M14 = system: M14
SK-MEL-5 = system: SK-MEL-5
OVCAR-8 = system: OVCAR-8
RPMI-8226 = system: RPMI-8226

In the case of `CCCCCCCCC/C=C1/CC(CO)(COC(=O)c2ccccc2)OC1=O` (centres undefined), the GI50 (PC-3) is reported as 10.8 µM (inactive), the GI50 (RXF 393) is reported as 15.6 µM (inactive) and the GI50 (OVCAR-4) is reported as 12.7 µM (inactive). The GI50 (MOLT-4) was 4.98 µM (inactive), the GI50 (A549) was 12.9 µM (inactive) and the GI50 (SF-295) was 10 µM (inactive). The GI50 (MDA-N) was 6.01 µM (inactive), the GI50 (HCC 2998) was 14.6 µM (inactive) and the GI50 (NCI-H23) was 15 µM (inactive). For the same molecule, the GI50 (COLO 205) was 1.85 µM (inactive), the GI50 (CAKI-1) was 12.2 µM (inactive) and the GI50 (HCT-15) was 16.3 µM. For the same molecule, the GI50 (HT-29) was 17.7 µM (inactive), the GI50 (TK-10) was 10.8 µM (inactive) and the GI50 (SK-OV-3) was 18.6 µM (inactive). The GI50 (UACC-62) was 14.7 µM (inactive), the GI50 (SW-620) was 14.4 µM (inactive) and the GI50 (UO-31) was 13 µM (inactive). For the same molecule, the GI50 (MDA-MB-231) was 12.6 µM (inactive), the GI50 (NCI-H522) was 13.7 µM (inactive) and the GI50 (SF-539) was 20.4 µM (inactive). The GI50 (MDA-MB-435) was 11.1 µM (inactive), the GI50 (SR) was 17.9 µM (inactive) and the GI50 (HCT-116) was 23.2 µM (inactive). For the same molecule, the GI50 (EKVX) was 14.9 µM (inactive), the GI50 (SN12C) was 12.5 µM (inactive) and the GI50 (SK-MEL-2) was 16.3 µM (inactive). For the same molecule, the GI50 (SNB-19) was 15.4 µM (inactive), the GI50 (OVCAR-5) was 12.2 µM (inactive) and the GI50 (BT-549) was 14.1 µM (inactive). For the same molecule, the GI50 (SK-MEL-28) was 13.7 µM (inactive), the GI50 (Hs-578T) was 3.69 µM (inactive) and the GI50 (T47D) was 11.5 µM (inactive). The GI50 (KM12) was 16.7 µM (inactive), the GI50 (UACC-257) was 14.2 µM (inactive) and the GI50 (HOP-92) was 1.61 µM (inactive). For the same molecule, the GI50 (A498) was 13.2 µM (inactive), the GI50 (786-0) was 10.4 µM (inactive) and the GI50 (IGROV-1) was 16.1 µM (inactive). The GI50 (NCI/ADR-RES) was 15.5 µM (inactive), the GI50 (MCF7) was 16.3 µM (inactive) and the GI50 (Malme-3M) was 6.92 µM (inactive). For the same molecule, the GI50 (NCI-H460) was 10 µM (inactive), the GI50 (DU-145) was 12.9 µM (inactive) and the GI50 (HOP-62) was 4.92 µM (inactive). For the same molecule, the GI50 (K562) was 3.89 µM (inactive), the GI50 (CCRF-CEM) was 10.9 µM (inactive) and the GI50 (OVCAR-3) was 16.7 µM (inactive). For the same molecule, the GI50 (SF-268) was 15.7 µM (inactive), the GI50 (ACHN) was 12.4 µM (inactive) and the GI50 (NCI-H226) was 10.5 µM (inactive). The GI50 (U-251) was 14 µM (inactive), the GI50 (SNB-75) was 10.2 µM (inactive) and the GI50 (M14) was 14 µM (inactive). For the same molecule, the GI50 (SK-MEL-5) was 3.78 µM (inactive).

For `Cc1ncc([N+](=O)[O-])n1CCN=[N+]=[N-]`, the GI50 (PC-3) was > 100 µM (inactive), the GI50 (RXF 393) was > 100 µM (inactive) and the GI50 (OVCAR-4) was > 100 µM (inactive). The GI50 (A549) was > 100 µM (inactive), the GI50 (SF-295) was > 100 µM (inactive) and the GI50 (MDA-N) was > 100 µM (inactive). For the same molecule, the GI50 (NCI-H23) was > 100 µM (inactive), the GI50 (COLO 205) was > 100 µM (inactive) and the GI50 (CAKI-1) was > 100 µM (inactive). For the same molecule, the GI50 (HCT-15) was greater than 100 µM, the GI50 (HT-29) was > 100 µM (inactive) and the GI50 (TK-10) was > 100 µM (inactive). The GI50 (SK-OV-3) was > 100 µM (inactive), the GI50 (UACC-62) was > 100 µM (inactive) and the GI50 (SW-620) was > 100 µM (inactive). The GI50 (OVCAR-8) was > 100 µM (inactive), the GI50 (UO-31) was > 100 µM (inactive) and the GI50 (MDA-MB-231) was > 100 µM (inactive). For the same molecule, the GI50 (NCI-H522) was > 100 µM (inactive), the GI50 (SF-539) was > 100 µM (inactive) and the GI50 (MDA-MB-435) was > 100 µM (inactive). For the same molecule, the GI50 (SR) was > 100 µM (inactive), the GI50 (RPMI-8226) was > 100 µM (inactive) and the GI50 (HCT-116) was > 100 µM (inactive). The GI50 (EKVX) was > 100 µM (inactive), the GI50 (SN12C) was > 100 µM (inactive) and the GI50 (SK-MEL-2) was > 100 µM (inactive). For the same molecule, the GI50 (SNB-19) was > 100 µM (inactive), the GI50 (OVCAR-5) was > 100 µM (inactive) and the GI50 (BT-549) was > 100 µM (inactive). For the same molecule, the GI50 (SK-MEL-28) was > 100 µM (inactive), the GI50 (Hs-578T) was > 100 µM (inactive) and the GI50 (T47D) was > 100 µM (inactive). For the same molecule, the GI50 (KM12) was > 100 µM (inactive), the GI50 (UACC-257) was > 100 µM (inactive) and the GI50 (HOP-92) was > 100 µM (inactive). For the same molecule, the GI50 (A498) was > 100 µM (inactive), the GI50 (786-0) was > 100 µM (inactive) and the GI50 (IGROV-1) was > 100 µM (inactive). For the same molecule, the GI50 (NCI/ADR-RES) was > 100 µM (inactive), the GI50 (MCF7) was > 100 µM (inactive) and the GI50 (Malme-3M) was > 100 µM (inactive). The GI50 (NCI-H460) was > 100 µM (inactive), the GI50 (DU-145) was > 100 µM (inactive) and the GI50 (HOP-62) was > 100 µM (inactive). For the same molecule, the GI50 (K562) was > 100 µM (inactive), the GI50 (OVCAR-3) was > 100 µM (inactive) and the GI50 (SF-268) was > 100 µM (inactive). The GI50 (ACHN) was > 100 µM (inactive), the GI50 (NCI-H226) was > 100 µM (inactive) and the GI50 (U-251) was > 100 µM (inactive). The GI50 (SNB-75) was > 100 µM (inactive), the GI50 (M14) was > 100 µM (inactive) and the GI50 (SK-MEL-5) was > 100 µM (inactive).
